Measurements taken from paper PMC11272598, “RG7774 (Vicasinabin), an orally bioavailable cannabinoid receptor 2 (CB2R) agonist, decreases retinal vascular permeability, leukocyte adhesion, and ocular inflammation in animal models” (Frontiers in Pharmacology, 2024).

Tests used:
[1] = Plasma PK profile in rats; format: in vivo, Wistar rats; conditions: mean (% CV)
Experimental: (§1) The plasma PK profile of RG7774 was assessed in adult male C57BL/6J mice and female Wistar rats (Charles River, Cologne, Germany) housed in a controlled environment (temperature, humidity, and 12 h light/dark cycle) with unrestricted access to food and water. The ocular PK profile of RG7774 was assessed in adult female […] rats (Charles River, Mattawan, MI, United States) housed in a controlled environment (21°C–22°C temperature, 40%–60%, humidity, and 12 h light/dark cycle) with unrestricted access to food and water and conducted according to local regulations by EyeCRO (Ann Arbor, MI, United States).
(§2) In the first study (animal permission #1857), mice received RG7774 as an intravenous (IV) bolus at 1 mg/kg (n = 6) or as an oral (PO) dose at 3 mg/kg (n = 5). In the second study (animal permission #2373), rats received RG7774 as an IV bolus at 10 mg/kg (n = 4) or via gavage at 30 mg/kg (n = 3). Blood samples were collected 0.1, 1, 3, 10, and 24 h post-dose under deep anesthesia with 3%–5% isoflurane in 100% O2. Samples were collected sublingually from mice, from the tail vein in rats or via heart puncture (terminal) into anticoagulant-coated polypropylene tubes and placed on ice. Plasma was prepared within 30 min of collection by centrifugation at 3,000 g for 5 min at 4°C and was immediately frozen. RG7774 concentrations in plasma were determined using LC-MS/MS. PK parameters were estimated by non-compartmental analysis of plasma data using Phoenix WinNonlin software (Certara, Princeton, NJ, United States).

[2] = Plasma PK profile in mice; format: in vivo, C57BL/6J mice
Experimental: as §1, §2

Microsomal clearance = format: in vitro ADME; conditions: pH 7.4
Experimental: Commercially-available ultra-pooled microsome preparations from human (150 different donors) (BD UltraPool HLM 150, Beckton Dickinson, Japan) or mouse liver tissues (Beckton Dickinson) were incubated in 96-deep-well plates containing 0.1 M phosphate buffer (pH 7.4) at 37 °C on a TECAN liquid handling system equipped with Teleshake shakers and a warming device (Tecan Group Ltd., Switzerland). The NADPH regenerating system consisted of 30 mM glucose-6-phosphate disodium salt hydrate, 10 mM NADP, 30 mM MgCl2 × 6 H2O, and 5 mg/mL glucose-6-phosphate dehydrogenase (Roche Diagnostics, IN, USA) in 0.1 M potassium phosphate buffer (pH 7.4). The microsome mixture (0.5 mg/mL) was incubated with 1 μM RG7774 in 96-well plates at 37 °C. After 1, 3, 6, 9, 15, 25, 35, and 45 min, aliquots of the incubations (40 μL) were removed and reactions were quenched with 1:3 (v/v) acetonitrile containing internal standards. Samples were cooled, centrifuged, and analyzed by liquid chromatography-mass spectroscopy (LC-MS)/mass spectroscopy (MS). Log peak area ratios (test compound peak area/internal standard peak area) were plotted against incubation time with a linear fit. The calculated slope was used to determine the intrinsic clearance: CLint (μL/min/mg protein) = –slope (min–1) × 1000/protein concentration, mg/mL.

[3] = tested on: STZ-induced diabetes retinal vascular permeability; experiment: Rats with STZ-induced type 1 diabetes (fluorophotometry); format: in vivo, Long Evans rats; conditions: STZ diabetic rats, 10 mg/kg daily oral gavage, 6 weeks after STZ, normalized to plasma
Experimental: Twenty-six male Long Evans rats (outbred) (Charles River Laboratories, Sulzfeld, Germany) aged 7 weeks and weighing 250–270 g at the beginning of the study were housed in individually ventilated cages with a maximum density of n = 2 rats per cage with the same sex and monitored daily. Bedding for diabetic animals was changed daily. The room was kept at 20°C–24°C with 50%–60% humidity and a 12/12 h light-dark cycle. Rats received a standard diet and water ad libidum, in addition to soaked food or soft diet. For animal welfare and for dosing purposes, animals were weighed every other day. Rats were sacrificed if weight loss was greater than 20% of the original weight, or more than 20% of body gain within 1 week.
Animals were fasted overnight and injected the following morning with IP 60 mg/kg (60 mg/mL at 1 mL/kg) STZ as reported previously ([Kim et al., 2007]; [Furman, 2015]) in 0.05 M sodium citrate buffer (pH 4.5). […]
To quantify fluorotron measurements, raw data were generated, exported as .txt files, and plotted using Microsoft Excel. The average AUC was calculated for 5 steps in the region of the scans corresponding to the vitreous peak. […] All data are expressed as mean ± SEM ng/mL ratios of vitreous:plasma fluorescein. Fluorophotometry data were analyzed using 2-way ANOVA followed by Newman–Keuls multiple comparisons test. […]

[4] = female, Wistar, rat, plasma, IV 10 mg/kg
[5] = female, Wistar, rat, plasma, PO 30 mg/kg
[6] = male, C57BL/6J, mouse, plasma, IV 1 mg/kg
[7] = male, C57BL/6J, mouse, plasma, PO 3 mg/kg

Cn1nnnc1Cn1nnc2c(N3CC[C@H](O)C3)nc(C(C)(C)C)nc21 [RG7774, (S)-1-(5-tert-butyl-3-[(1-methyl-1H-tetrazol-5-yl)methyl]-3H-[1,2,3]triazolo[4,5-d]pyrimidin-7-yl)pyrrolidin-3-ol]
AUCinf/dose ([1]; IV 10 mg/kg): 6,000 (16) ng h^–1 ml^–1 (mg kg^−1) ^−1
AUCinf/dose ([1]; PO 30 mg/kg): 4,670 (9.4) ng h^–1 ml^–1 (mg kg^−1) ^−1
Cmax/dose ([1]; PO 30 mg/kg): 466 (13) ng ml^–1 (mg kg^–1) ^−1
clearance [1, 4]: 2.84 mL/min/kg
half-life [1, 4]: 2.54 h
Vd ([1]; female, Wistar, rat, plasma, IV 10 mg/kg, read-out: Vss): 0.442 L/kg
Tmax [1, 5]: 1.25 h
bioavailability [1, 5]: 81.4%
half-life [1, 5]: 3.18 h
AUCinf/dose ([2]; IV 1 mg/kg): 1,230 ng h^–1 ml^–1 (mg kg^−1) ^−1
AUCinf/dose ([2]; PO 3 mg/kg): 490 ng h^–1 ml^–1 (mg kg^−1) ^−1
Cmax/dose ([2]; PO 3 mg/kg): 487 ng ml^–1 (mg kg^–1) ^−1
clearance [2, 6]: 13.2 mL/min/kg
half-life [2, 6]: 9.04 h
Vd ([2]; male, C57BL/6J, mouse, plasma, IV 1 mg/kg, read-out: Vss): 3.7 L/kg
Tmax [2, 7]: 0.25 h
bioavailability [2, 7]: 42.2%
half-life [2, 7]: 2.1 h
microsomal CLint at 1 µM (Microsomal clearance; human): 21.7 µL/min/mg
microsomal CLint at 1 µM (Microsomal clearance; mouse, mouse liver microsomes): 15 µL/min/mg
microsomal CLint at 1 µM (Microsomal clearance; rat, rat microsomes): 25 µL/min/mg
vitreous fluorescein [3]: 25.6 ng/mL
